Experimental data taken from US20040121946A9, “Inducing cellular immune responses to her2/neu using peptide and nucleic acid compositions” (priority 2002, published 2004).
Where no end group is shown, it is not given here.

Key:
DRB1*0301 (DR3) = DRB1*0301 (DR3) (Homo sapiens, UniProt P01903+P01911, A100K/A102G/A103R/A169T/F55Y/I96L/K41T/L162R/M171V/P40S/Q125H/Q178H/Q39Y/R42S/S66N/T106N/T262R/W38E/Y61H); assay: HLA class II peptide binding assay, purified HLA; details: unit not given
HLA-B*0702 = HLA-B*0702 (Homo sapiens, UniProt P01889); type: binding; details: Table XXIV, B7 supermotif peptides
[1] = system: HLA-DR molecules (DR1, DR4w4, DR7, DRB5*0101, DRB1*1501, DRB1*1101, DRB1*0802, DRB1*1302); assay: DR supertype cross-reactive binding; parameters: species or system human; details: for DR147 Cross-binding: number of DR1, DR4w4, DR7 bound, Table XXVIII
[2] = Table XXa, DR 3a motif peptides
[3] = Table XIX, DR supermotif peptides

NKEILDEAYVMAGVG
DR3 binding data (DRB1*0301 (DR3); [2]): 0.0047

CC(C)C[C@H](NC(=O)[C@H](C)NC(=O)[C@H](Cc1ccc(O)cc1)NC(=O)[C@H](CC(N)=O)NC(=O)[C@H](CC(=O)O)NC(=O)[C@H](CCC(=O)O)NC(=O)[C@H](Cc1ccccc1)NC(=O)[C@H](CC(C)C)NC(=O)[C@H](CCC(N)=O)NC(=O)[C@@H](NC(=O)CN)[C@@H](C)O)C(=O)N[C@@H](C)C(=O)N[C@H](C(=O)N[C@@H](CC(C)C)C(=O)N[C@@H](CC(=O)O)C(=O)O)C(C)C
DR3 binding data (DRB1*0301 (DR3); [2]): 0.2200

CC(C)C[C@H](NC(=O)[C@@H]1CCCN1C(=O)[C@H](C)NC(=O)[C@@H](NC(=O)[C@H](CC(N)=O)NC(=O)[C@H](CO)NC(=O)[C@H](C)NC(=O)[C@@H]1CCCN1C(=O)[C@H](CC(=O)O)NC(=O)CNC(=O)[C@H](CC(=O)O)NC(=O)[C@H](Cc1ccccc1)NC(=O)[C@H](CO)NC(=O)[C@H](CCC(=O)O)NC(=O)[C@@H]1CCCN1)[C@@H](C)O)C(=O)O
DR3 binding data (DRB1*0301 (DR3); [3]): −0.0027
DR3 binding data (DRB1*0301 (DR3); [2]): −0.0027

CC(C)C[C@H](NC(=O)[C@H](CCC(N)=O)NC(=O)[C@H](CC(=O)O)NC(=O)[C@H](Cc1c[nH]c2ccccc12)NC(=O)[C@@H]1CCCN1C(=O)[C@@H](NC(=O)[C@@H](NC(=O)[C@H](Cc1c[nH]cn1)NC(=O)[C@@H](N)C(C)C)[C@@H](C)O)C(C)C)C(=O)N[C@@H](Cc1ccccc1)C(=O)N[C@@H](CCCNC(=N)N)C(=O)N[C@@H](CC(N)=O)C(=O)N1CCC[C@H]1C(=O)N[C@@H](Cc1c[nH]cn1)C(=O)N[C@@H](CCC(N)=O)C(=O)O
DR3 binding data (DRB1*0301 (DR3); [3]): 0.0220
DR3 binding data (DRB1*0301 (DR3); [2]): 0.0220

CC[C@H](C)[C@H](NC(=O)[C@@H]1CCCN1C(=O)[C@@H](NC(=O)[C@@H](NC(=O)[C@H](CC(N)=O)NC(=O)[C@H](CC(N)=O)NC(=O)[C@H](CC(C)C)NC(=O)[C@@H]1CCCN1C(=O)[C@@H](N)Cc1ccccc1)[C@@H](C)O)[C@@H](C)O)C(=O)O [Her2/neu.121.F1I9]
IC50 (HLA-B*0702): 1.6 nM

SLSFLQDIQEVQGYV
DR3 binding data (DRB1*0301 (DR3); [2]): 0.0520

CC[C@H](C)[C@H](NC(=O)[C@H](CO)NC(=O)[C@H](CC(C)C)NC(=O)[C@H](CO)NC(=O)[C@H](C)NC(=O)[C@H](CC(N)=O)NC(=O)[C@@H](NC(=O)[C@@H]1CCCN1C(=O)[C@@H](N)Cc1ccccc1)[C@@H](C)O)C(=O)O [Her2/neu.65.F1I9]
IC50 (HLA-B*0702): 4.6 nM

KNGVVKDVFAFGGAV
DR3 binding data (DRB1*0301 (DR3); [2]): −0.0025

CC(C)C[C@H](NC(=O)[C@@H]1CCCN1C(=O)[C@@H](NC(=O)[C@@H](NC(=O)[C@@H]1CCCN1C(=O)[C@H](CC(=O)O)NC(=O)[C@H](CCC(=O)O)NC(=O)[C@H](CO)NC(=O)[C@H](Cc1ccc(O)cc1)NC(=O)[C@H](CCCNC(=N)N)NC(=O)[C@H](CCC(N)=O)NC(=O)[C@@H](N)CC(C)C)[C@@H](C)O)C(C)C)C(=O)N1CCC[C@H]1C(=O)N[C@@H](CO)C(=O)N[C@@H](CCC(=O)O)C(=O)O
DR3 binding data (DRB1*0301 (DR3); [3]): 0.0270
DR3 binding data (DRB1*0301 (DR3); [2]): 0.0270

ETEYHADGGKVPIKW
DR3 binding data (DRB1*0301 (DR3); [2]): −0.0027

GDLVDAEEYLVPQQG
DR3 binding data (DRB1*0301 (DR3); [2]): 0.0250

CC[C@H](C)[C@H](NC(=O)[C@@H](NC(=O)[C@H](CS)NC(=O)[C@@H](NC(=O)[C@@H]1CCCN1C(=O)[C@@H]1CCCN1C(=O)[C@H](CCC(N)=O)NC(=O)[C@@H]1CCCN1C(=O)[C@H](CC(C)C)NC(=O)[C@H](CCCNC(=N)N)NC(=O)[C@H](CCC(=O)O)NC(=O)CN)[C@@H](C)CC)[C@@H](C)O)C(=O)N[C@@H](CC(=O)O)C(=O)N[C@H](C(=O)N[C@@H](Cc1ccc(O)cc1)C(=O)O)C(C)C
DR147 Cross-binding [1]: 0

SDVFDGDLGMGAAKG
DR3 binding data (DRB1*0301 (DR3); [2]): −0.0025

DLTLGLEPSEEEAPR
DR3 binding data (DRB1*0301 (DR3); [3]): −0.0025
DR3 binding data (DRB1*0301 (DR3); [2]): −0.0025

CSCC[C@H](NC(=O)[C@H](CC(=O)O)NC(=O)[C@H](CC(=O)O)NC(=O)[C@H](CC(=O)O)NC(=O)[C@H](CCC(=O)O)NC(=O)[C@H](CC(C)C)NC(=O)[C@H](CC(C)C)NC(=O)[C@H](CO)NC(=O)[C@H](CCCNC(=N)N)NC(=O)[C@@H](N)Cc1ccc(O)cc1)C(=O)NCC(=O)N[C@@H](CC(=O)O)C(=O)N[C@@H](CC(C)C)C(=O)N[C@H](C(=O)N[C@@H](CC(=O)O)C(=O)O)C(C)C
DR3 binding data (DRB1*0301 (DR3); [2]): 0.0630

FVVIQNEDLGPASPL
DR3 binding data (DRB1*0301 (DR3); [3]): −0.0025
DR3 binding data (DRB1*0301 (DR3); [2]): −0.0025

CC(C)C[C@H](NC(=O)[C@@H](NC(=O)[C@H](CCC(=O)O)NC(=O)[C@H](Cc1ccccc1)NC(=O)[C@@H](NC(=O)[C@H](CCC(N)=O)NC(=O)[C@H](CC(C)C)NC(=O)[C@H](CCC(N)=O)NC(=O)[C@H](CCC(=O)O)NC(=O)[C@@H]1CCCN1C(=O)[C@H](CCC(N)=O)NC(=O)[C@H](CC(C)C)NC(=O)[C@@H]1CCCN1C(=O)[C@H](C)NC(=O)[C@@H](N)[C@@H](C)O)C(C)C)[C@@H](C)O)C(=O)O
DR3 binding data (DRB1*0301 (DR3); [3]): 0.0023

CSCC[C@H](NC(=O)[C@H](CCCNC(=N)N)NC(=O)[C@H](CO)NC(=O)[C@H](Cc1ccccc1)NC(=O)[C@H](CCC(=O)O)NC(=O)[C@H](CO)NC(=O)[C@@H](NC(=O)[C@H](CC(C)C)NC(=O)[C@H](CCC(=O)O)NC(=O)[C@H](CCCNC(=N)N)NC(=O)[C@@H](N)Cc1ccccc1)C(C)C)C(=O)N[C@@H](C)C(=O)N[C@@H](CCCNC(=N)N)C(=O)N[C@@H](CC(=O)O)C(=O)N1CCC[C@H]1C(=O)O
DR3 binding data (DRB1*0301 (DR3); [3]): 0.0710
DR3 binding data (DRB1*0301 (DR3); [2]): 0.0710

CC[C@H](C)[C@H](NC(=O)[C@@H]1CCCN1C(=O)[C@H](CCSC)NC(=O)[C@H](Cc1ccc(O)cc1)NC(=O)[C@H](CO)NC(=O)[C@H](CC(C)C)NC(=O)[C@H](CC(=O)O)NC(=O)[C@@H]1CCCN1C(=O)[C@H](CCCCN)NC(=O)[C@@H](NC(=O)CNC(=O)[C@H](CO)NC(=O)[C@@H]1CCCN1)C(C)C)C(=O)N[C@@H](Cc1c[nH]c2ccccc12)C(=O)N[C@@H](CCCCN)C(=O)O
DR3 binding data (DRB1*0301 (DR3); [3]): −0.0027
DR3 binding data (DRB1*0301 (DR3); [2]): −0.0027

CSCC[C@H](NC(=O)[C@H](CC(=O)O)NC(=O)[C@H](CC(=O)O)NC(=O)[C@H](CC(=O)O)NC(=O)[C@H](CCC(=O)O)NC(=O)[C@H](CC(C)C)NC(=O)[C@H](CC(C)C)NC(=O)[C@H](CO)NC(=O)[C@@H](N)CCCNC(=N)N)C(=O)NCC(=O)N[C@@H](CC(=O)O)C(=O)N[C@@H](CC(C)C)C(=O)N[C@H](C(=O)N[C@@H](CC(=O)O)C(=O)N[C@@H](C)C(=O)O)C(C)C
DR3 binding data (DRB1*0301 (DR3); [3]): 0.0080
DR3 binding data (DRB1*0301 (DR3); [2]): 0.0080

CC[C@H](C)[C@H](NC(=O)CNC(=O)[C@@H](NC(=O)[C@@H](NC(=O)[C@H](C)NC(=O)[C@H](CO)NC(=O)[C@@H](NC(=O)[C@@H](NC(=O)[C@H](CO)NC(=O)[C@@H](NC(=O)[C@@H](N)CC(C)C)[C@@H](C)O)[C@@H](C)CC)[C@@H](C)CC)C(C)C)C(C)C)C(=O)N[C@@H](CC(C)C)C(=O)N[C@@H](CC(C)C)C(=O)N[C@H](C(=O)N[C@H](C(=O)O)C(C)C)C(C)C
DR147 Cross-binding [1]: 1

CC(C)C[C@H](NC(=O)[C@H](CS)NC(=O)[C@H](Cc1c[nH]cn1)NC(=O)[C@H](CCCNC(=N)N)NC(=O)[C@H](C)NC(=O)[C@H](CC(N)=O)NC(=O)[C@@H](NC(=O)[C@H](Cc1ccc(O)cc1)NC(=O)[C@H](CCC(=O)O)NC(=O)[C@H](CCCNC(=N)N)NC(=O)[C@@H]1CCCN1C(=O)[C@H](CC(C)C)NC(=O)CNC(=O)[C@H](CCC(N)=O)NC(=O)[C@@H](N)CC(C)C)C(C)C)C(=O)O
DR3 binding data (DRB1*0301 (DR3); [3]): −0.0027
DR3 binding data (DRB1*0301 (DR3); [2]): −0.0027

CC[C@H](C)[C@H](NC(=O)[C@@H](NC(=O)[C@@H](NC(=O)[C@H](Cc1ccccc1)NC(=O)[C@H](CCCNC(=N)N)NC(=O)[C@H](CCC(N)=O)NC(=O)[C@@H]1CCCN1C(=O)[C@H](CC(=O)O)NC(=O)[C@H](CCCNC(=N)N)NC(=O)[C@H](C)NC(=O)[C@H](CCSC)NC(=O)[C@H](CCCNC(=N)N)NC(=O)[C@H](CO)NC(=O)[C@@H](N)Cc1ccccc1)C(C)C)C(C)C)C(=O)N[C@@H](CCC(N)=O)C(=O)O
DR3 binding data (DRB1*0301 (DR3); [2]): 0.1600

DNLYYWDQDPPERGA
DR3 binding data (DRB1*0301 (DR3); [2]): −0.0025

SLAFLPESFDGDPAS
DR3 binding data (DRB1*0301 (DR3); [2]): −0.0027

FPGGLRELQI [Her2/neu.133.F1I10]
IC50 (HLA-B*0702): 306 nM

CC(C)C[C@H](NC(=O)CNC(=O)[C@H](Cc1c[nH]c2ccccc12)NC(=O)[C@@H](N)CCCNC(=N)N)C(=O)N[C@@H](CC(C)C)C(=O)N[C@@H](CC(C)C)C(=O)N[C@@H](C)C(=O)N[C@@H](CC(C)C)C(=O)N[C@@H](CC(C)C)C(=O)N1CCC[C@H]1C(=O)N1CCC[C@H]1C(=O)NCC(=O)N[C@@H](C)C(=O)N[C@@H](C)C(=O)N[C@@H](CO)C(=O)O
DR147 Cross-binding [1]: 2
Broad Binding (5/8) ([1]; number of the 8 DR alleles bound): 6

AIKVLRENTSPKANK
DR3 binding data (DRB1*0301 (DR3); [3]): 0.0075
DR3 binding data (DRB1*0301 (DR3); [2]): 0.0075

TVPLPSETDGYVAPL
DR3 binding data (DRB1*0301 (DR3); [2]): −0.0025

CSCC[C@H](NC(=O)CNC(=O)[C@H](CC(C)C)NC(=O)CNC(=O)[C@H](Cc1ccc(O)cc1)NC(=O)[C@@H](N)CS)C(=O)N[C@@H](CCC(=O)O)C(=O)N[C@@H](Cc1c[nH]cn1)C(=O)N[C@@H](CC(C)C)C(=O)N[C@@H](CCCNC(=N)N)C(=O)N[C@@H](CCC(=O)O)C(=O)N[C@H](C(=O)N[C@@H](CCCNC(=N)N)C(=O)N[C@@H](C)C(=O)N[C@H](C(=O)O)C(C)C)C(C)C
DR3 binding data (DRB1*0301 (DR3); [3]): 0.0083
DR3 binding data (DRB1*0301 (DR3); [2]): 0.0083

CC[C@H](C)[C@H](NC(=O)[C@H](Cc1ccccc1)NC(=O)[C@H](CO)NC(=O)[C@H](CC(C)C)NC(=O)[C@H](CO)NC(=O)[C@H](C)NC(=O)[C@H](CC(N)=O)NC(=O)[C@@H](NC(=O)[C@@H]1CCCN1C(=O)[C@@H](N)Cc1ccccc1)[C@@H](C)O)C(=O)O [Her2/neu.65.F1I10]
IC50 (HLA-B*0702): 120 nM

DTILWKDIFHKNNQL
DR3 binding data (DRB1*0301 (DR3); [2]): −0.0027

LVTYNTDTFESMPNP
DR3 binding data (DRB1*0301 (DR3); [2]): −0.0027

NQEVTAEDGTQRCEK
DR3 binding data (DRB1*0301 (DR3); [2]): −0.0027

FPLNNTTPV [Her2/neu.121.F1]
IC50 (HLA-B*0702): 0.2 nM

MRRLLQETELVEPLT
DR3 binding data (DRB1*0301 (DR3); [2]): −0.0027

TAPLQPEQLQVEETL
DR3 binding data (DRB1*0301 (DR3); [2]): 0.0023
